We go through one compound from patent publication US8350062B2, “Synthesis and anticancer activity of new actin-targeting small-molecule agents” (priority 2009, dated 2013).

For one test, the target named is filamentous actin (Oryctolagus cuniculus, UniProt P68135). Description: TIRF microscopy of Oregon green-labeled actin filaments with analog 10. It is filed as biochemical. The note with it: 1.5 μM solution. As to the method:
Encouraged by the initially observed potent G-actin binding affinity of 10, we next employed time-lapse total internal reflection fluorescence (TIRF) microscopy to examine the effects of this compound on depolymerization of filamentous actin in vitro. We initially assembled individual actin filaments by elongating them from a pool of 1.0 μM Mg-ATP-actin monomers supplemented with a trace of […] Mg-ATP-actin monomers labeled with Oregon green for visualization. The resulting filaments were incubated with either a solution of buffer or a 1.5 μM solution of 10 and imaged with TIRF microscopy. […] Similar to our previous observations, the mechanism of actin depolymerization by 10 entailed formation of multiple filaments breaks, which in turn created subsequent points for actin disassembly.

A further test has as its system PC3 cells. Description: Growth of PC3 cells over 96 h. To be noted: same growth conditions. It is filed as cell-based, human. As to the method: Cell Viability Assays. All assays were performed using at least three replicate wells for each concentration tested. Original 10-25 mM DMSO stock solution of bistramide A or its analogs was diluted to 100 μM for analogs 4-8, 10 μM for analog 3, 5 μM for analog 2 and 1 μM for bistramide A (1) with F-12K cell culture media supplemented with 10% fetal bovine serum, 100 I.U./ml penicillin, 100 μg/ml streptomycin and 2 mM L-glutamine. Two-fold serial dilutions were performed and used for cell-based assays. A549 cells were grown in 96-well white plates at the density of 1,000 cells per well in 100 μl F-12K cell culture media. Cells were allowed to attach over 24 h and treated with 30 μl of the drug solution and incubated further for 48 h. After incubation, cell viability was determined using luminescence-based commercial kit (CellTiter-Glo, Promega) and luminescence measured using a Wallac Victor 3 plate reader. To measure cell growth inhibition, viability assays were performed twice: at initial time point T0 and after 48 h incubation (T48). Change in the number of viable cells was measured, and GI50 was calculated from sigmoidal plots. For analog 10, growth of A549 and PC3 cells was monitored over 96 h following addition of the drug. 100 μM was the highest concentration tested. At no point did the total DMSO conc. exceed 1%.

Consider `COCCC(=O)NC[C@H](O)[C@H](C)C(=O)NCCC[C@H]1O[C@@]2(CCC[C@@H](CC[C@H](C)/C=C(\C)[C@H](C)O)O2)CCC1C` (some centres unmarked) [Analog 10], for which, on filamentous actin, the “effect on F-actin filaments” value is reported as “rapid filament disassembly”. Moreover, the “sensitivity of PC3 cells compared with A549 cells” value in the test with PC3 cells is “substantially less sensitive”.
